These are literature values, as cited in US7329673B2, “Acylated spiropiperidine derivatives as melanocortin-4 receptor agonists” (Merck & Co., Inc., priority 2003, dated 2008).

Data set [1] concerns men with erectile dysfunction. Conditions: for duration of effect / onset of action: after an oral dose; for share of men/patients in whom effective (adequate response): oral.
For data set [2], the system named is males with psychogenic erectile dysfunction.
For data set [3] the following is noted: in vivo, po.

On to `Cc1ccc(N(CC2=NCCN2)c2cccc(O)c2)cc1` [phentolamine], for which, in data set [1], the duration of effect was 2 h, the onset of action is 5 to 30 min and the “share of men/patients in whom effective (adequate response)” value was 35-40%.
`CCCc1nn(C)c2c(=O)[nH]c(-c3cc(S(=O)(=O)N4CCN(C)CC4)ccc3OCC)nc12` [sildenafil]: in data set [1], the duration of effect entry is on record as “about 4 hours”, the onset of action was 30 to 60 min and the “share of men/patients in whom effective (adequate response)” value is “about 70%”.
As to “Ac-Nle-c[Asp-His-DPhe-Arg-Trp-Lys]-NH2 [MT-II]”, in data set [2] (in vivo), the duration of action result was “approximately 2.5 hours” and the “time to onset of erection” value is 10 to 20 min. Further, the response rate in data set [2] (injected intramuscularly or subcutaneously) is listed as 75%. Moreover, the “absorption into the systemic circulation” value in data set [3] was “not absorbed into the systemic circulation”.
